No end group written: not given here.
Tests used:
[1] = biological target: T1, human nociceptin receptor (ORL-1) (Homo sapiens, UniProt P41146); assay: Nociceptin receptor binding assay: binding of 125I-Tyr14-nociceptin to ORL-1 on HEK-293 cell membranes; conditions: for Ki: competition with 0.5 nM 125I-Tyr14-nociceptin, HEK-293 cell membranes, 3 experiments in duplicate; for Ki(x)/Ki(WT): ratio of variant Ki to nociceptin Ki
T1 construct: expressed in transfected cells
Method: Binding of peptides to the ORL-1 Receptor. […] ORL-1 membranes were diluted in binding buffer such that 25 μL containing 1 microgram (μg) of membrane was added to each well of a standard 96-well microtiter in binding buffer. […] Plates were incubated for two hours at room temperature and the reactions were filtered over GF/C Filterplates (Perkin Elmer-NEN), prewetted in 0.03% polyethleneimine, in a Filtermate 196 apparatus (Packard). Plates were washed six times with binding buffer in the filtration apparatus, then dried under vacuum for 1-2 hours. Twenty five microliters (25 μL) Microscint 20 (Packard) per well was added to solubilize bound radioactivity. The plates were then sealed and counted on a Packard Top Count to determine radioactivity bound to the membranes. Curves were fitted and IC50 values determined using Graphpad Prizm software (v3.0).

ORL1 [2] = biological target: T2, ORL1 (Homo sapiens, UniProt P41146); assay: Calcium flux (FLIPR) in carbachol-sensitized HEK-293 cells expressing ORL-1 receptor; type: cell-based; design: expressed in transfected cells; host or cells: HEK-293 cells expressing ORL-1 receptor; conditions: for EC50: HEK-293 cells expressing ORL-1, pretreated with 100 μM carbachol, read-out: EC50 (calcium release); for EC50(x)/EC50(WT): ratio of variant EC50 to nociceptin EC50
Method: HEK-293 cells expressing ORL-1 receptor were plated at a density of 50,000 cells/well in a total volume of 50 ↑L onto 96-well plates. Two days later cells were prepared for assay using the FLIPR Calcium Assay Kit (Molecular Devices) according to manufacturer's directions, with the exception that the volume of dye mix added to each well was 50 μL instead of 100 μL. Cells were then treated with 100 μM carbachol in 100 μL. […] Data points were collected at one per second for 120 seconds, then one every three seconds for 30 seconds for a total collection time of 150 seconds after both the first and second additions.
This produced a “percent of carbachol response” for each dose. The experiment was repeated 6 times and the high and low values for each concentration were dropped. The data were used to generate EC50 curves using GraphPad Prizm v.3.0 software.
Target sequence in this assay (P41146 whole entry): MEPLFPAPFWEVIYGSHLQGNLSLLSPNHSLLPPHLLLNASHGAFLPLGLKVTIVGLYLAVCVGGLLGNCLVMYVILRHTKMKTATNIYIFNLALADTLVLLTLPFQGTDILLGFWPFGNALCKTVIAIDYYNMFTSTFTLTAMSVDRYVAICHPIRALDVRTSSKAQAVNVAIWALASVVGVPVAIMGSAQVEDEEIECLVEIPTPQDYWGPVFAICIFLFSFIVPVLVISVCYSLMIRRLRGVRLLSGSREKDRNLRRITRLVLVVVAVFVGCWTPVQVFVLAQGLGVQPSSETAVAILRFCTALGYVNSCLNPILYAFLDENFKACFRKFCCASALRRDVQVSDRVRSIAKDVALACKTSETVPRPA

ORL1 [3] = biological target: T2, ORL1; conditions: cited from earlier work
Target sequence in this assay (P41146 whole entry, species assumed): as the sequence (P41146 whole entry) above

T1 sequence (P41146 whole entry): as above

Compound | Ki [1] [nM] | Ki(x)/Ki(WT) [1] | EC50 (ORL1 [2]) [nM] | EC50(x)/EC50(WT) (ORL1 [2]) | fold lower affinity for ORL1 than nociceptin (ORL1 [3]) [fold]
FGGFTGARKSARKLANA [Peptide Q17A] | 0.8 | 1.1 | 12 | 4.8 | 
FGGFTGAKKSAKKLANQ [R8K/R12K] | 3.9 | 5.4 | 53.5 | 22 | 
FGGFTGAAKSARKLANQ [Peptide R8A] | 50 | 69 | 69 | 29 | 
FGGFTGARKSAKKLANQ [Peptide R12K] | 0.8 | 1.1 | 2.4 | 1.0 | 
FGGFTGGRKSARKLANQ [Peptide A7G] | 7.7 | 11 | 18 | 7.4 | 
FAGFTGARKSARKLANQ [Peptide G2A] | 191 | 265 | 1390 | 581 | 
FGGFTGARKSLRKLANQ [Peptide A11L] | 0.9 | 1.2 | 8.3 | 3.5 | 
FGGFTGARKSARALANQ [Peptide K13A] | 1.5 | 2.1 | 1.1 | 0.5 | 
FGGATGARKSARKLANQ [Peptide F4A] | 188 | 262 | 3880 | 1617 | 
CCCC[C@H](NC(=O)[C@H](CO)NC(=O)[C@H](CCCCN)NC(=O)[C@H](CCCNC(=N)N)NC(=O)[C@H](C)NC(=O)CNC(=O)[C@@H](NC(=O)[C@H](Cc1ccccc1)NC(=O)CNC(=O)CNC(=O)[C@@H](N)Cc1ccccc1)[C@@H](C)O)C(=O)N[C@@H](CCCNC(=N)N)C(=O)N[C@@H](CCCCN)C(=O)N[C@@H](CC(C)C)C(=O)N[C@@H](C)C(=O)N[C@@H](CC(N)=O)C(=O)N[C@@H](CCC(N)=O)C(=O)O [Peptide A11nleu] | 1.9 | 2.6 | 4.2 | 1.8 | 
FGGFLGARKSARKLANQ [Peptide T5L] | 2.2 | 3.1 | 14 | 5.7 | 
FGGFTGARKSARKLGNQ [Peptide A15G] | 0.2 | 0.3 | 1.9 | 0.8 | 
FGGFTGAKKSARKLANQ [Peptide R8K] | 32 | 45 | 64 | 27 | 
FGGFAGARKSARKLANQ [Peptide T5A] | 6.4 | 8.9 | 159 | 66 | 
FGGFTGARKSARKLAAQ [Peptide N16A] | 0.3 | 0.4 | 1.7 | 0.7 | 
FGGFTGLRKSARKLANQ [Peptide A7L] | 0.8 | 1.1 | 13 | 5.2 | 
FGGFSGARKSARKLANQ [Peptide T5S] | 1.4 | 2.0 | 27 | 11 | 
FGGFTGARKSSRKLANQ [Peptide A11S] | 1.2 | 1.7 | 1.2 | 0.5 | 
FGGFTGARKAARKLANQ [Peptide S10A] | 0.8 | 1.2 | 42 | 18 | 
CCCC[C@H](NC(=O)CNC(=O)[C@@H](NC(=O)[C@H](Cc1ccccc1)NC(=O)CNC(=O)CNC(=O)[C@@H](N)Cc1ccccc1)[C@@H](C)O)C(=O)N[C@@H](CCCNC(=N)N)C(=O)N[C@@H](CCCCN)C(=O)N[C@@H](CO)C(=O)N[C@@H](C)C(=O)N[C@@H](CCCNC(=N)N)C(=O)N[C@@H](CCCCN)C(=O)N[C@@H](CC(C)C)C(=O)N[C@@H](C)C(=O)N[C@@H](CC(N)=O)C(=O)N[C@@H](CCC(N)=O)C(=O)O [Peptide A7nleu] | 0.5 | 0.7 | 29 | 12 | 
AGGFTGARKSARKLANQ [Peptide F1A] | 91 | 127 | 1440 | 601 | 
FGGFTGARKSARKAANQ [Peptide L14A] | 0.2 | 0.3 | 7 | 2.9 | 
FGGFTGARKSAAKLANQ [Peptide R12A] | 2.8 | 3.9 | 1.3 | 0.5 | 
FGGFTAARKSARKLANQ [Peptide G6A] | 1.5 | 2.1 | 39 | 16 | 
FGGFTGARASARKLANQ [Peptide K9A] | 1.5 | 2.1 | 2.8 | 1.2 | 
FGGFTGSRKSARKLANQ [Peptide A7S] | 1.5 | 2.1 | 5.6 | 2.3 | 
FGGFTGARKSGRKLANQ [Peptide A11G] | 3.2 | 4.4 | 11 | 4.8 | 
Y G G F L R R I R P K L K W D N Q [Dynorphin A] |  |  |  |  | 100
FGAFTGARKSARKLANQ [Peptide G3A] | 1.6 | 2.2 | 13 | 5.5 | 

Source: patent US20050266575A1 (priority 2004, published 2005)
